In the assay the target is T1, human holo-transferrin (hTf) (Homo sapiens, UniProt P02787).
T1 construct: gene TF; commercial holo (iron-loaded) glycoprotein, Sigma-Aldrich; mature full length, 679 residues, ~79 kDa, N-lobe and C-lobe, no tag stated
As to the kind of experiment: intrinsic fluorescence quenching titration. In kind it is binding. The following applies: double-log, excitation 280 nm, 50 mM potassium phosphate pH 7.4, 298 K. From the text: intrinsic fluorescence quenching titration on human holo-transferrin (hTf)

Where a name gives a salt, the structure may show the parent alone.

T1 sequence (P02787 20-698): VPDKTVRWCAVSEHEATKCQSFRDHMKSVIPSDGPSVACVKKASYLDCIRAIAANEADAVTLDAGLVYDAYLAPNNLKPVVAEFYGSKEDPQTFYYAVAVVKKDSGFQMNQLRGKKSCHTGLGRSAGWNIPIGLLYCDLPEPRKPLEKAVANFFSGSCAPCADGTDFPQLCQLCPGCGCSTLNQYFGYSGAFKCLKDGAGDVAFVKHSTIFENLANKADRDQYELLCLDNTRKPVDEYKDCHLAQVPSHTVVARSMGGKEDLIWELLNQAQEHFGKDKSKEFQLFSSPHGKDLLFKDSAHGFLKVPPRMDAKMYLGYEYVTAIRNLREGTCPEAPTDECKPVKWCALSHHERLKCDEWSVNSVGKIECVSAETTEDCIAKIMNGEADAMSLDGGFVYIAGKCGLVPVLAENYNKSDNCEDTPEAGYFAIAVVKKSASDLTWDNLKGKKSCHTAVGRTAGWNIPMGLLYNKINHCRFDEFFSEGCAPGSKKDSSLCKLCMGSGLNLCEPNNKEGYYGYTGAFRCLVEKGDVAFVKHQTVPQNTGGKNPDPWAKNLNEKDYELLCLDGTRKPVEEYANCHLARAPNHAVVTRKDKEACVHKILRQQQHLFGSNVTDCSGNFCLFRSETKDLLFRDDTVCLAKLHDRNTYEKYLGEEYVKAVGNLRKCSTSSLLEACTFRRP

In the case of `CC(=O)Oc1ccccc1C(=O)O` [aspirin, 2-acetoxy benzoic acid], the “K b ( L mol^-1) / λ ex = 280 nM” value (one site, binary system without ropinirole) is given as “(7.83 ± 0.02) × 10^3 L mol^-1”.
As for `CCCN(CCC)CCc1cccc2c1CC(=O)N2` [ropinirole hydrochloride, 4-[2-(dipropylamino)ethyl]-1,3-dihydro-2H-indol-2-one monohydro-chloride], the “K b ( L mol^-1) / λ ex = 280 nM” value (stronger of two sites, binary system without aspirin) is given as “(1.69 ± 0.03) × 10^6 L mol^-1”.

Values taken from article PMC6268275, “Use of Spectroscopic, Zeta Potential and Molecular Dynamic Techniques to Study the Interaction between Human Holo-Transferrin and Two Antagonist Drugs: Comparison of Binary and Ternary Systems” (Molecules, 2012).
